Consider 15 molecules from patent publication US10208089B2, “Modulation of complement activity” (priority 2014, dated 2019).

Each structure is given as a SMILES string. Starred links: 1 amine or outer side, 2 acyl side, 3 side chain; linkers in the order of their positions; H or OH if unused. Positions of bridges follow the written chain, without caps; N, C: chain ends. Non-standard residues stand in square brackets, D forms with d. Residues, ends and D or L forms follow the SMILES beside them. Trp(7-aza) = N[C@@H](Cc1c[nH]c2ncccc12)C(=O)O; mXylylene = c1cc(C[*:1])cc(C[*:2])c1; Phg = N[C@H](C(=O)O)c1ccccc1; Tle = CC(C)(C)[C@H](N)C(=O)O; NMeS = CN[C@@H](CO)C(=O)O; Nva = CCC[C@H](N)C(=O)O; Sar = CNCC(=O)O

The target in the first assay is C5 (Homo sapiens, UniProt P01031). Briefly: Human hemolysis assay (RBC lysis assay using complete human sera). Format: cell-based. On the set-up: with complete human sera (Complement Technology, Tyler Tex.) and polypeptides; tissue Complement Technology, Tyler Tex; host or cells: complete human serum. The settings on record: 7-azatryptophan variant polypeptides of R3002; inhibition of red blood cell lysis.
C5, sequence (P01031 19-1676): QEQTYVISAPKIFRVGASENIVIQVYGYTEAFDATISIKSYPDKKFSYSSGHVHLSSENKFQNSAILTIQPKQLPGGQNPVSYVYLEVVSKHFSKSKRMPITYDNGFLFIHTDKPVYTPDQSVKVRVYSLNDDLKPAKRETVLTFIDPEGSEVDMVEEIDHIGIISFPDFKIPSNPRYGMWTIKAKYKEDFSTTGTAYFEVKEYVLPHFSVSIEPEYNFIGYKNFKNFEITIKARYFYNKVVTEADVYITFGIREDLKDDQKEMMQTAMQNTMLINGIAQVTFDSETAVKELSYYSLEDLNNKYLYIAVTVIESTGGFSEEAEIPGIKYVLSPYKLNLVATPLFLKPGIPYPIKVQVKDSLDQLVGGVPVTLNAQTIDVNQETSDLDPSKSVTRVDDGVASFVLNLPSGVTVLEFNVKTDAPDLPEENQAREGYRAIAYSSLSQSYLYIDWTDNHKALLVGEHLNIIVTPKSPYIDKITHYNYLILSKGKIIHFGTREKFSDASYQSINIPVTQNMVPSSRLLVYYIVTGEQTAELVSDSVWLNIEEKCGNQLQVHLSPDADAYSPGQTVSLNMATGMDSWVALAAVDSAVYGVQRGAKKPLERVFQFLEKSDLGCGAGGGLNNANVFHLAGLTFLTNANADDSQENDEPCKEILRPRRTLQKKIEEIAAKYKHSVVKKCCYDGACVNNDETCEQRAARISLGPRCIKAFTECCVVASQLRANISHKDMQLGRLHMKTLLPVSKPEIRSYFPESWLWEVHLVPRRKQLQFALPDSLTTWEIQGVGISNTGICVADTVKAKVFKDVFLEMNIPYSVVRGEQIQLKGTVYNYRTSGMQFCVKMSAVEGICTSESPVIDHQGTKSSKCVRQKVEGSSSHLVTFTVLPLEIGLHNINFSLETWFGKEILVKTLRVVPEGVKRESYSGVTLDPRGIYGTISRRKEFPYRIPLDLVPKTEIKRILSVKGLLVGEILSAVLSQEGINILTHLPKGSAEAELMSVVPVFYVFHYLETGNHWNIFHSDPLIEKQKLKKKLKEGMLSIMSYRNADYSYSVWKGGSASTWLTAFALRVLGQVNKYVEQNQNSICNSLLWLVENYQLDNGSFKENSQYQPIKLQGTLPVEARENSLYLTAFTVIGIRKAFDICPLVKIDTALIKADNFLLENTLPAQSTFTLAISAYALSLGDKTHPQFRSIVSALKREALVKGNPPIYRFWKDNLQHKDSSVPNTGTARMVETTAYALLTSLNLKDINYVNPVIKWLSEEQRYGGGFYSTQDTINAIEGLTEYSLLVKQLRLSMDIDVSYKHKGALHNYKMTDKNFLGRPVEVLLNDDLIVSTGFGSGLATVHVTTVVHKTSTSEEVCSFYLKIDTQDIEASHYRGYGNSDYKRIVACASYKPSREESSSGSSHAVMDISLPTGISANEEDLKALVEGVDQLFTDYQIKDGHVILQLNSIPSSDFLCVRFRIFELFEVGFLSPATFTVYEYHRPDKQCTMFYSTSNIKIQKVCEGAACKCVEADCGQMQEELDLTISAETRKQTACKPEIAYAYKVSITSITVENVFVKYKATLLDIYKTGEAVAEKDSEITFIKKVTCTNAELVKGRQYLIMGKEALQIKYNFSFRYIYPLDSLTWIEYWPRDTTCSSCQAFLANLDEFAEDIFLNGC
A word on the IC50: it is the midpoint of a concentration-inhibition curve. The molecule `CCC[C@H](NC(=O)[C@@H](NC(=O)[C@@H]1CCCN1C(=O)[C@H](Cc1ccc(O)cc1)NC(=O)[C@H](CCC(=O)O)NC(=O)[C@@H]1CSCc2cccc(c2)CSC[C@H](NC(=O)[C@H](CCC)NC(C)=O)C(=O)N[C@@H](Cc2ccc(O)cc2)C(=O)N[C@@H](CCC(=O)O)C(=O)N[C@@H](CC(N)=O)C(=O)N[C@@H](C(C)(C)C)C(=O)N[C@@H](Cc2ccc(O)cc2)C(=O)N1)c1ccccc1)C(N)=O` [Compound R3017, [mXylyl(2,8)]Ac-Nvl-C-Y-E-N-Tbg-Y-C-E-Y-P-Phg-Nvl-NH2] (Ac-[Nva]CYEN[Tle]YCEYP[Phg][Nva]-NH2; linker 2-8 via mXylylene) came in with an IC50 above 100000 nM.

Staying with this assay, now noted: inhibition of lysis of antibody-sensitized sheep erythrocytes, complete human sera.
In the case of `CCC[C@H](NC(C)=O)C(=O)N[C@@H](CS)C(=O)N[C@@H](Cc1ccc(O)cc1)C(=O)N[C@@H](CCCCN)C(=O)N[C@@H](CC(N)=O)C(=O)N[C@@H](Cc1ccc(O)cc1)C(=O)N[C@@H](Cc1c[nH]cn1)C(=O)N[C@@H](Cc1c[nH]c2ncccc12)C(=O)N[C@@H](CCC(=O)O)C(=O)N[C@@H](Cc1ccc(O)cc1)C(=O)N1CCC[C@H]1C(=O)N[C@H](C(=O)N[C@@H](Cc1ccc(O)cc1)C(N)=O)C(C)(C)C` [Compound R3000, Ac-Nvl-C-Y-K-N-Y-H-azaTrp-E-Y-P-Tbg-Y-NH2] (Ac-[Nva]CYKNYH[Trp(7-aza)]EYP[Tle]Y-NH2), the IC50 was above 10000 nM.

As for `CCC[C@H](NC(C)=O)C(=O)N[C@@H](CS)C(=O)N[C@@H](Cc1ccc(O)cc1)C(=O)N[C@@H](CCC(=O)O)C(=O)N[C@@H](CC(N)=O)C(=O)N[C@H](C(=O)N[C@@H](Cc1ccc(O)cc1)C(=O)N[C@@H](Cc1c[nH]c2ncccc12)C(=O)N[C@@H](CCC(=O)O)C(=O)N[C@@H](Cc1ccc(O)cc1)C(=O)N(C)CC(=O)N[C@@H](CCC)C(=O)N(C)[C@@H](CO)C(N)=O)C(C)(C)C` [Compound R3001, Ac-Nvl-C-Y-E-N-Tbg-Y-azaTrp-E-Y-(N-Me)G-Nvl-(N-Me)S-NH2] (Ac-[Nva]CYEN[Tle]Y[Trp(7-aza)]EY[Sar][Nva][NMeS]-NH2), the IC50 is 67.2 nM.

As to `CCC[C@H](NC(C)=O)C(=O)N[C@@H](CS)C(=O)N[C@@H](Cc1ccc(O)cc1)C(=O)N[C@@H](CC(N)=O)C(=O)N[C@@H](CC(N)=O)C(=O)N[C@H](C(=O)N[C@@H](CCC(=O)O)C(=O)N[C@@H](Cc1c[nH]c2ncccc12)C(=O)N[C@@H](CCC(=O)O)C(=O)N[C@@H](Cc1ccc(O)cc1)C(=O)N1CCC[C@H]1C(=O)N[C@H](C(=O)N[C@H](C(N)=O)C(C)(C)C)c1ccccc1)C(C)(C)C` [Compound R3004, Ac-Nvl-C-Y-N-N-Tbg-E-azaTrp-E-Y-P-Phg-Tbg-NH2] (Ac-[Nva]CYNN[Tle]E[Trp(7-aza)]EYP[Phg][Tle]-NH2), the IC50 amounted to 53.5 nM.

`CCC[C@H](NC(C)=O)C(=O)N[C@@H](CS)C(=O)N[C@@H](Cc1ccc(O)cc1)C(=O)N[C@@H](Cc1c[nH]c2ncccc12)C(=O)N(C)CC(=O)N[C@H](C(=O)N[C@@H](CCC)C(=O)N[C@@H](Cc1c[nH]c2ncccc12)C(=O)N[C@@H](CCC(=O)O)C(=O)N[C@@H](Cc1ccc(O)cc1)C(=O)N1CCC[C@H]1C(=O)N[C@H](C(=O)N1CCC[C@H]1C(N)=O)c1ccccc1)C(C)(C)C` [Compound R3005, Ac-Nvl-C-Y-azaTrp-(N-Me)G-Tbg-Nvl-azaTrp-E-Y-P-Phg-P-NH2] (Ac-[Nva]CY[Trp(7-aza)][Sar][Tle][Nva][Trp(7-aza)]EYP[Phg]P-NH2): the half-maximal inhibitory concentration (IC50) worked out at 66.7 nM.

Turning to `CCC[C@H](NC(=O)CN(C)C(=O)[C@H](Cc1ccc(O)cc1)NC(=O)[C@H](CCC(=O)O)NC(=O)[C@H](Cc1c[nH]c2ncccc12)NC(=O)[C@H](Cc1ccc(O)cc1)NC(=O)[C@@H](NC(=O)[C@H](CC(N)=O)NC(=O)[C@H](CCC(=O)O)NC(=O)[C@H](Cc1ccc(O)cc1)NC(C)=O)C(C)(C)C)C(=O)N(C)[C@@H](CO)C(N)=O` [Compound R3006, Ac-Y-E-N-Tbg-Y-azaTrp-E-Y-(N-Me)G-Nvl-(N-Me)S-NH2] (Ac-YEN[Tle]Y[Trp(7-aza)]EY[Sar][Nva][NMeS]-NH2), the IC50 stood at 267 nM.

Consider `CCC[C@H](NC(C)=O)C(=O)N[C@H]1CSCc2cccc(c2)CSC[C@@H](C(=O)N(C)[C@@H](CO)C(=O)N[C@H](C(=O)N[C@@H](CCCCN)C(=O)N[C@@H](Cc2c[nH]c3ncccc23)C(=O)N[C@@H](CCC(=O)O)C(=O)N[C@@H](Cc2ccc(O)cc2)C(N)=O)C(C)(C)C)NC(=O)[C@H](Cc2ccc(O)cc2)NC(=O)[C@H](c2ccccc2)NC(=O)[C@H](CCC(=O)O)NC(=O)[C@H](CCCCN)NC1=O` [Compound R3007, [mXylyl(2,7)]Ac-Nvl-C-K-E-Pbg-Y-C-(N-Me)S-Tbg-K-azaTrp-E-Y-NH2] (Ac-[Nva]CKE[Phg]YC[NMeS][Tle]K[Trp(7-aza)]EY-NH2; linker 2-7 via mXylylene), for which the IC50 is 314 nM.

Turning to `CCC[C@H](NC(=O)[C@@H]1CCCN1C(=O)[C@H](CCC)NC(=O)[C@@H]1CSCc2cccc(c2)CSC[C@H](NC(=O)[C@H](CCC)NC(C)=O)C(=O)N[C@@H](Cc2ccc(O)cc2)C(=O)N[C@@H](CCC(=O)O)C(=O)N(C)CC(=O)N[C@@H](C(C)(C)C)C(=O)N[C@@H](Cc2ccc(O)cc2)C(=O)N[C@@H](Cc2c[nH]c3ncccc23)C(=O)N[C@@H](CCC(=O)O)C(=O)N1)C(N)=O` [Compound R3009, [mXylyl(2,10)]Ac-Nvl-C-Y-E-(N-Me)G-Tbg-Y-azaTrp-E-C-Nvl-P-Nvl-NH2] (Ac-[Nva]CYE[Sar][Tle]Y[Trp(7-aza)]EC[Nva]P[Nva]-NH2; linker 2-10 via mXylylene), the half-inhibitory concentration (IC50) is above 100000 nM.

For `CCC[C@H](NC(C)=O)C(=O)N[C@H]1CSCc2cccc(c2)CSC[C@@H](C(N)=O)NC(=O)[C@@H]2CCCN2C(=O)[C@H](CCC)NC(=O)[C@H](CCC)NC(=O)[C@H](CCC(=O)O)NC(=O)[C@H](Cc2c[nH]c3ncccc23)NC(=O)[C@H](Cc2ccc(O)cc2)NC(=O)[C@H](C(C)(C)C)NC(=O)CN(C)C(=O)[C@H](CCC(=O)O)NC(=O)[C@H](Cc2ccc(O)cc2)NC1=O` [Compound R3010, [mXylyl(2,13)]Ac-Nvl-C-Y-E-(N-Me)G-Tbg-Y-azaTrp-E-Nvl-Nvl-P-C-NH2] (Ac-[Nva]CYE[Sar][Tle]Y[Trp(7-aza)]E[Nva][Nva]PC-NH2; linker 2-13 via mXylylene), the concentration for half-maximal inhibition (IC50) is above 100000 nM.

As for `CCC[C@H](NC(=O)[C@@H]1CSCc2cccc(c2)CSC[C@H](NC(=O)[C@H](CCC)NC(C)=O)C(=O)N[C@@H](c2ccccc2)C(=O)N[C@@H]([C@@H](C)O)C(=O)N[C@@H](Cc2c[nH]c3ncccc23)C(=O)N[C@@H](CCC(=O)O)C(=O)N[C@@H](Cc2ccc(O)cc2)C(=O)N(C)[C@@H](CO)C(=O)N[C@@H](Cc2c[nH]cn2)C(=O)N1)C(N)=O` [Compound R3012, [mXylyl(2,10)]Ac-Nvl-C-Phg-T-azaTrp-E-Y-(N-Me)S-H-C-Nvl-NH2] (Ac-[Nva]C[Phg]T[Trp(7-aza)]EY[NMeS]HC[Nva]-NH2; linker 2-10 via mXylylene), the IC50 amounted to 148 nM.

For `CCC[C@H](NC(C)=O)C(=O)N[C@H]1CSCc2cccc(c2)CSC[C@@H](C(N)=O)NC(=O)[C@H](Cc2c[nH]cn2)NC(=O)[C@H](CO)N(C)C(=O)[C@H](Cc2ccc(O)cc2)NC(=O)[C@H](CCC(=O)O)NC(=O)[C@H](Cc2c[nH]c3ncccc23)NC(=O)[C@H]([C@@H](C)O)NC(=O)[C@H](c2ccccc2)NC1=O` [Compound R3013, [mXyly1(2,10)]Ac-Nvl-C-Phg-T-azaTrp-E-Y-(N-Me)S-H-C-NH2] (Ac-[Nva]C[Phg]T[Trp(7-aza)]EY[NMeS]HC-NH2; linker 2-10 via mXylylene), the IC50 was found to be 344 nM.

Consider `CC(=O)N[C@H]1CSCc2cccc(c2)CSC[C@@H](C(N)=O)NC(=O)[C@H](Cc2c[nH]cn2)NC(=O)[C@H](CO)N(C)C(=O)[C@H](Cc2ccc(O)cc2)NC(=O)[C@H](CCC(=O)O)NC(=O)[C@H](Cc2c[nH]c3ncccc23)NC(=O)[C@H](Cc2ccc(O)cc2)NC(=O)[C@H](C(C)(C)C)NC1=O` [Compound R3016, [mXylyl(1,9)]Ac-C-Tbg-Y-azaTrp-E-Y-(N-Me)S-H-C-NH2] (Ac-C[Tle]Y[Trp(7-aza)]EY[NMeS]HC-NH2; linker 1-9 via mXylylene), for which the IC50 was above 13000 nM.

Take `CCC[C@H](NC(=O)[C@@H](NC(=O)[C@@H]1CCCN1C(=O)[C@H](Cc1ccc(O)cc1)NC(=O)[C@H](CCC(=O)O)NC(=O)[C@@H]1CSCc2cccc(c2)CSC[C@H](NC(=O)[C@H](CCC)NC(C)=O)C(=O)N[C@@H](Cc2ccc(O)cc2)C(=O)N[C@@H](CCC(=O)O)C(=O)N[C@@H](CC(N)=O)C(=O)N[C@@H](C(C)(C)C)C(=O)N[C@@H](Cc2ccc(O)cc2)C(=O)N1)c1ccccc1)C(N)=O` [Compound R3017, [mXylyl(2,8)]Ac-Nvl-C-Y-E-N-Tbg-Y-C-E-Y-P-Phg-Nvl-NH2] (Ac-[Nva]CYEN[Tle]YCEYP[Phg][Nva]-NH2; linker 2-8 via mXylylene): the IC50 was above 100000 nM.

Take `CCC[C@H](NC(=O)[C@@H](NC(=O)[C@@H]1CCCN1C(=O)[C@@H]1CSCc2cccc(c2)CSC[C@H](NC(=O)[C@H](CCC)NC(C)=O)C(=O)N[C@@H](Cc2ccc(O)cc2)C(=O)N[C@@H](CCC(=O)O)C(=O)N[C@@H](CC(N)=O)C(=O)N[C@@H](C(C)(C)C)C(=O)N[C@@H](Cc2ccc(O)cc2)C(=O)N[C@@H](Cc2c[nH]c3ncccc23)C(=O)N[C@@H](CCC(=O)O)C(=O)N1)c1ccccc1)C(N)=O` [Compound R3018, [mXylyl(2,10)]Ac-Nvl-C-Y-E-N-Tbg-Y-azaTrp-E-C-P-Phg-Nvl-NH2] (Ac-[Nva]CYEN[Tle]Y[Trp(7-aza)]ECP[Phg][Nva]-NH2; linker 2-10 via mXylylene): the IC50 was above 5730 nM.

Turning to `CCC[C@H](NC(C)=O)C(=O)N[C@H]1CSCc2cccc(c2)CSC[C@@H](C(N)=O)NC(=O)[C@H](CCC)NC(=O)[C@H](c2ccccc2)NC(=O)[C@@H]2CCCN2C(=O)[C@H](Cc2ccc(O)cc2)NC(=O)[C@H](CCC(=O)O)NC(=O)[C@H](Cc2c[nH]c3ncccc23)NC(=O)[C@H](Cc2ccc(O)cc2)NC(=O)[C@H](C(C)(C)C)NC(=O)[C@H](CC(N)=O)NC(=O)[C@H](CCC(=O)O)NC(=O)[C@H](Cc2ccc(O)cc2)NC1=O` [Compound R3019, [mXylyl(2,14)]Ac-Nvl-C-Y-E-N-Tbg-Y-azaTrp-E-Y-P-Phg-Nvl-C-NH2] (Ac-[Nva]CYEN[Tle]Y[Trp(7-aza)]EYP[Phg][Nva]C-NH2; linker 2-14 via mXylylene), the IC50 amounted to 1320 nM.

Consider `CSCC[C@H](N)C(=O)N[C@H]1CSCc2cccc(c2)CSC[C@@H](C(=O)N[C@@H](CCC(=O)O)C(=O)N[C@H](C(=O)N[C@@H](CCCNC(=N)N)C(=O)N[C@@H](Cc2c[nH]c3ccccc23)C(=O)N[C@@H](CCC(=O)O)C(=O)N[C@@H](Cc2ccc(O)cc2)C(N)=O)C(C)C)NC(=O)[C@H](Cc2ccc(O)cc2)NC(=O)[C@H](CCCNC(=N)N)NC(=O)[C@H](CCC(=O)O)NC(=O)[C@H](CO)NC1=O` [Compound R3020, [mXylyl(2,7)]M-C-S-E-R-Y-C-E-V-R-W-E-Y-NH2] (H-MCSERYCEVRWEY-NH2; linker 2-7 via mXylylene), for which the IC50 is 24.6 nM.
